The values that follow are results of earlier work, collected in patent US20080153927A1, “ALPHA-2B RECEPTOR AGONIST AND RELAXANT COMPOSITIONS FOR TREATING GASTROINTESTINAL MOTILITY DISORDERS” (Allergan, Inc., priority 2006, published 2008).

SMILES strings stand for the structures.

Consider `CN(C)[C@@H](CCOc1cccc2ccccc12)c1ccccc1` [Dapoxetine], for which the initial half-life (in vivo) was 1.2 h. Further, the “time to maximum serum concentration” value (serum) is “about 1 hour”.
